Data published in patent US20150051262A1, “NMDA RECEPTOR MODULATORS AND USES THEREOF” (Northwestern University, priority 2011, published 2015).
Residues, ends and D or L forms follow the SMILES beside them.

Columns and labels:
ultrasonic vocalizations = test: Rat ultrasonic vocalizations (USVs) test; format: in vivo, SD rats; settings: 1 mg/kg PO, 1 hr before testing
Procedure: FIGS. 14A and 14B show the results of the rat USVs test. Positive emotional learning was measured during the conditioned stimulus (CS) trials preceding the tickle unconditioned stimulus (UCS) trials (FIG. 14A). Animals received 15 second trials consisting of 6 CS and 6 UCS trials each (3 min total). Running speed for animals to self administer tickling at the end of the 3 min session was also measured. […] N=7-8. *P<0.05.

fall latencies = test: Rat accelerating rota-rod test; format: in vivo, SD rats; settings: 10-100 mg/kg PO, 30 and 60 min post-dosing, FIG. 16
Procedure: Animals were tested immediately before dosing (0 min), 30 min post-dosing, and 60 min post-dosing using a within subjects design.

open field behavior = test: Rat open field test; format: in vivo, SD rats; settings: 1 mg/kg PO, 1 hr before test, FIG. 15
floating behavior [1] = test: Porsolt test procedure 1; format: in vivo, Sprague-Dawley rats
Procedure: Animals were placed in a 46 cm tall×20 cm in diameter clear glass tube filled to 30 cm with tap water at room temperature (23° C.±0.5° C.) for 5 min on the test day. All animals were towel dried after each swimming session by the experimenter. Water was changed after every other animal. Animals were videotaped and total duration (sec) of floating behavior (as defined as the minimal movement required in order to maintain the animal's head above the water) was quantified by a blind experimenter.

floating behavior [2] = test: Porsolt test procedure 2; format: in vivo, Sprague Dawley rats; settings: for floating time in the Porsolt test: single dose (0.3 mg/kg IV), 24 hrs post-dosing, FIG. 11C
[3] = Metabolic stability in liver microsomes, rat; format: in vitro ADME; settings: Rat (M) microsomes; for % Remaining at 60 minutes / Stability Class / Half-life: 1 μM
Procedure: (§1) Metabolic stability was assessed in liver microsomes as well as in hepatocytes with few compounds.
(§2) Procedure for microsomal stability: • Species: Rat and human • Test concentration: 1 μM (n=2) • Protein concentration: 0.125 mg/mL • Time points: 0, 5, 15, 30 and 60 minutes • Controls: Minus NADPH and buffer • Analysis: Parent compound monitoring LC-MS/MS (Peak area ratios)

[4] = Bioavailability of CM-4A (plasma concentration after IV/PO dosing); format: in vivo, Sprague Dawley rats; settings: 0.1 to 10 mg/kg PO, rat plasma, FIG. 1
Procedure: Procedure. […] Data for male and female were combined for 1 mg/kg PO dosing given that no gender difference was seen. Plasma was separated by centrifugation (1,000×G for 10 min at 4° C.) and plasma samples stored at −80° C. until assay. […]. On the day of the assay, samples and spiked plasma standards were thawed at 4° C., extracted in 3 volumes of ice cold acetonitrile, centrifuged at 25,000×G for 10 min at 4° C., and the supernatant was loaded into autosampler vials (4° C.).

in vitro = settings: dog, MDCK; for Papp: concentration 5 μM
Procedure: (§3) Procedure. Permeability of test compounds was assessed using MDCK (Madin-Darby Canine Kidney Cells) using the below parameters. • Test concentration: 5 μM (n=3) • Buffer: HBSS pH 7.4 • Time points: 0, 15, 30, 60 and 90 min • Analysis: Parent compound monitoring using LC-MS/MS

[5] = Metabolic stability in liver microsomes, human; format: in vitro ADME; settings: Human (M) microsomes; for % Remaining at 60 minutes / Stability Class / Half-life: 1 μM
Procedure: as §1, §2

[6] = test system: long-term depression (LTD); test: Long-term depression (LTD) in hippocampal slices; format: cell-based; settings: 1 μM, FIG. 7
Procedure: (Note 0.001 μM represents no drug addition; Each point is mean±SEM of 8-10 slices).

latency to eat = test: Rat novelty-induced hypophagia (NIH) test; format: in vivo, SD rats; settings: 1 mg/kg PO, 1 hr before test, FIG. 13
Procedure: The rat NIH test was conducted as follows. Animals were food deprived overnight before testing, and lab chow was placed into the center chamber of the open field. After NIH testing, the latency to eat in the animals' home cage was determined as a control. […] N=12 per group. *P<0.05.

[7] = Kinetic aqueous solubility (pION method); format: physicochemical; settings: pH 7.4, conc. tested 200 μM with 1% DMSO, 16 h incubation
floating behavior [8] = test: Porsolt test procedure 2; format: in vivo, Sprague Dawley rats; settings: 1 hr post-dosing
Procedure: The antidepressant-like effects of test compounds were examined with the rat Porsolt test as described in Page et al. (1999) and Burgdorf et al. (2009). Male Sprague Dawley rats (2-3 month old) were used in this study. Animals were dosed with test compounds (0.3 mg/kg IV) or sterile saline vehicle (1 ml/kg IV tail vein) 1 hr before a single test session. […] Water was changed after every other animal. […] CM-6A, CM-7A, CM-8A, and CM-9A were tested in the Porsolt test. CM-5A was not tested in the Porsolt test.
Animals received a single 15 min Porsolt habituation session on the day before the first 5 min Porsolt test. N=6 per group. *P<0.05 Fisher's PLSD post hoc test vs. vehicle.

[9] = test system: MDCK (Madin-Darby Canine Kidney Cells); test: in vitro; settings: concentration 5 μM
Procedure: as §3

[10] = test system: Schaffer collateral-evoked NMDA EPSCs in CA1 pyramidal neurons; test: Long-term potentiation (LTP) assay procedure 2; format: cell-based, Sprague-Dawley rats; settings: 1 μM, FIG. 8, P<0.05
Procedure: Assays were conducted as described in Zhang et al. (2008). Sprague-Dawley rats (12-18 days old; Taconic Farms) were deeply anesthetized with isoflurane and decapitated. Brains was removed rapidly, submerged in ice-cold artificial cerebrospinal fluid (ACSF, 2-4° C.), which contained (in mM): 124 NaCl, 4 KCl, 2 MgSO4, 2 CaC12, 1.25 NaH2PO4, 26 NaHCO3, 10 glucose; at pH 7.4, gassed continuously with 95% O2/5% CO2). Brains were hemisected, the frontal lobes cut off, and individual hemispheres glued using cyanoacrylate adhesive onto a stage immersed in ice-cold ACSF gassed continuously with 95% O2/5% CO2 during slicing. […] Bath application of test compounds (1 μM) was applied 30 min prior to application of Schaffer collateral stimulus trains to elicit LTP. LTP was induced by stimulation of Schaffer collateral axons with four high frequency theta burst stimulus trains of 10×100 Hz/5 pulse bursts each, applied at an inter-burst interval of 200 ms. Each train was 2 s in duration, and trains were applied 15 s apart.

[11] = Metabolic stability in hepatocytes, rat; format: in vitro ADME; settings: Rat (H) hepatocytes, 10 μM
Procedure: as §1
(§4) Procedure for hepatocyte stability: • Stock preparation: DMSO • Buffer: Krebs Henseleit Buffer • Total Incubation volume: […] • Cell density: 1 million cells/mL • Test concentration: 10 μM with 0.5% DMSO (n=2) • Time points: 0 and 60 min • Analysis: LC-MS/MS

[12] = Metabolic stability in hepatocytes, human; format: in vitro ADME; settings: Human (H) hepatocytes, 10 μM
Procedure: as §1, §4

[13] = single dose 0.3 mg/kg IV, FIG. 11A
[14] = single dose (0.3 mg/kg IV), FIG. 11B

Compound	% Remaining at 60 minutes [3]	Stability Class [3]	% Remaining at 60 minutes [5]	Stability Class [5]	magnitude of LTD [6]	Mean Solubility (N = 3) at pH [7]	floating time in the Porsolt test (floating behavior [8]; [13])	floating time in the Porsolt test (floating behavior [8]; [14])	floating time in the Porsolt test (floating behavior [2])	Half-life [3]	Permeability classification [9]	Recovery [9]	long-term potentiation after high frequency stimulation (fEPSP slope) [10]	Half-life [5]	other results
C[C@@H](O)[C@H](N)C(=O)N1CCC[C@H]1C(=O)N1CCC[C@@]1(Cc1ccccc1)C(=O)N[C@H](C(N)=O)[C@@H](C)O [CM-4A, (R)-N-((2S,3R)-1-amino-3-hydroxy-1-oxobutan-2-yl)-1-((S)-1-((2S,3R)-2-amino-3-hydroxybutanoyl)pyrrolidine-2-carbonyl)-2-benzylpyrrolidine-2-carboxamide]	68%	Unstable (% Remaining <70%)	72%	Moderate (% Remaining 70-90%)	significantly reduced the magnitude of LTD	–	–	–	–	–	–	–	–	–	positive emotional learning (ultrasonic vocalizations; FIG. 14A): increases positive emotional learning; aversive 20-kHz USVs (ultrasonic vocalizations; FIG. 14B): decreases aversive 20-kHz USVs; fall latencies (sedative/ataxia like effect) (fall latencies): does not produce a sedative/ataxia like effect; center compartment crosses and time (anxiolytic-like effect) (open field behavior): produces an anxiolytic-like effect; locomotor behavior (line crosses) (open field behavior): without effecting locomotor behavior; floating time in the rat Porsolt test (dose response) (floating behavior [1]; 0.1 to 10 mg/kg PO, FIG. 9): dose- and time-dependent antidepressant effect; floating time in the rat Porsolt test (floating behavior [2]; positive control, 1 mg/kg PO, 1 hr and 24 hrs post dosing, FIG. 12): robust Antidepressant-like effects; half-life at 1 μM ([3]; liver microsomes): > 1 h; oral bioavailability (dose linearity) [4]: essentially linear; recovery at 5 μM (in vitro; pH 7.4): 100%; Papp (in vitro; pH 7.4, Papp (10^−6 cm/sec), HBSS pH 7.4): 0.15 ×10⁻⁶ cm/s; Papp (in vitro; pH 7.4, Permeability classification): < 3 ×10⁻⁶ cm/s; half-life at 1 μM ([5]; liver microsomes): > 1 h; latency to eat in the NIH test (latency to eat): produces an antidepressant/anxiolytic-like effect
C[C@@H](O)[C@H](N)C(=O)N1CCC[C@H]1C(=O)N1CCC[C@@]1(Cc1ccc(F)cc1)C(=O)N[C@H](C(N)=O)[C@@H](C)O [CM-6A, (R)-N-((2S,3R)-1-amino-3-hydroxy-1-oxobutan-2-yl)-1-((S)-1-((2S,3R)-2-amino-3-hydroxybutanoyl)pyrrolidine-2-carbonyl)-2-(4-fluorobenzyl) pyrrolidine-2-carboxamide]	100%	Stable (% Remaining >90%)	88%	Moderate (% Remaining 70-90%)	–	>200	produced an antidepressant-like effect	produced an antidepressant-like effect	produced an antidepressant-like effect	>1 h	Low (≦3 × 10^−6 cm/sec)	100	increased long-term potentiation	>1 h	% Remaining at 60 minutes [11]: 87%; Half-life [11]: >1 h; Stability Class [11]: Moderate (% Remaining 70-90%); % Remaining at 60 minutes [12]: 98%; Half-life [12]: >1 h; Stability Class [12]: Stable (% Remaining >90%)
C[C@@H](O)[C@H](N)C(=O)N1CCC[C@H]1C(=O)N1CCC[C@@]1(Cc1cccc(F)c1)C(=O)N[C@H](C(N)=O)[C@@H](C)O [CM-9A, (R)-N-((2S,3R)-1-amino-3-hydroxy-1-oxobutan-2-yl)-1-((S)-1-((2S,3R)-2-amino-3-hydroxybutanoyl)pyrrolidine-2-carbonyl)-2-(3-fluorobenzyl) pyrrolidine-2-carboxamide]	100%	Stable (% Remaining >90%)	69%	Unstable (% Remaining <70%)	–	148 ± 42	produced an antidepressant-like effect	produced an antidepressant-like effect	produced an antidepressant-like effect	>1 h	Low (≦3 × 10^−6 cm/sec)	100	increased long-term potentiation	>1 h	–
C[C@@H](O)[C@H](N)C(=O)N1CCC[C@H]1C(=O)N1CCC[C@H]1C(=O)N[C@H](C(N)=O)[C@@H](C)O [GLYX-13, reference compound] (H-TPPT-NH2)	–	–	–	–	significantly reduced the magnitude of LTD	–	–	–	–	–	–	–	–	–	–
NS(=O)(=O)c1cccc2c1c([N+](=O)[O-])cc1[nH]c(=O)c(=O)[nH]c12 [NBQX, 2,3-dihydroxy-6-nitro-7-sulfamoyl-benzo[f]quinoxaline-2,3-dione, reference compound]	–	–	–	–	–	–	–	–	–	–	–	–	–	–	floating time in the rat Porsolt test, NBQX pretreatment (floating behavior [1]; NBQX 10 mg/kg IP 10 min before CM-4A 1 mg/kg PO, FIG. 10): blocks the antidepressant-like effect of CM-4A
